Results published in the NIST ThermoML archive (doi:10.1016/j.jct.2016.12.032).

Assay: xn = mol fraction of the nth substance listed
Details: 100 kPa, Liquid; for viscosity: Capillary tube (Ostwald / Ubbelohde) method; for mass density: Vibrating tube method

O=C1CCCCCO1 [6-hexanolactone] + CCCC[n+]1ccn(C)c1.O=S(=O)([N-]S(=O)(=O)C(F)(F)F)C(F)(F)F
Details | mass density [kg/m3] | viscosity [mPa·s]
293.15 K, x2 = 0 | 1075.92 | 6.63
293.15 K, x2 = 0.05 | 1122.04 | 7.97
293.15 K, x2 = 0.1002 | 1161.48 | 9.67
293.15 K, x2 = 0.1505 | 1195.51 | 11.48
293.15 K, x2 = 0.1985 | 1223.86 | 13.4
293.15 K, x2 = 0.3001 | 1273.58 | 18.05
293.15 K, x2 = 0.3987 | 1311.9 | 23.25
293.15 K, x2 = 0.4903 | 1341.13 | 28.59
293.15 K, x2 = 0.6309 | 1377.36 | 37.38
293.15 K, x2 = 0.6988 | 1391.97 | 41.8
293.15 K, x2 = 0.8042 | 1411.81 | 48.8
293.15 K, x2 = 0.883 | 1424.76 | 54.08
298.15 K, x2 = 0 | 1071.67 | 5.76
298.15 K, x2 = 0.05 | 1117.68 | 6.87
298.15 K, x2 = 0.1002 | 1157.04 | 8.29
298.15 K, x2 = 0.1505 | 1191 | 9.78
298.15 K, x2 = 0.1985 | 1219.3 | 11.34
298.15 K, x2 = 0.3001 | 1268.92 | 15.14
298.15 K, x2 = 0.3987 | 1307.17 | 19.36
298.15 K, x2 = 0.4903 | 1336.35 | 23.66
298.15 K, x2 = 0.6309 | 1372.52 | 30.61
298.15 K, x2 = 0.6988 | 1387.11 | 34.05
298.15 K, x2 = 0.8042 | 1406.92 | 39.48
298.15 K, x2 = 0.883 | 1419.85 | 43.58
303.15 K, x2 = 0 | 1067.41 | 5.04
303.15 K, x2 = 0.05 | 1113.3 | 5.97
303.15 K, x2 = 0.1002 | 1152.56 | 7.18
303.15 K, x2 = 0.1505 | 1186.44 | 8.42
303.15 K, x2 = 0.1985 | 1214.67 | 9.71
303.15 K, x2 = 0.3001 | 1264.18 | 12.78
303.15 K, x2 = 0.3987 | 1302.35 | 16.15
303.15 K, x2 = 0.4903 | 1331.47 | 19.54
303.15 K, x2 = 0.6309 | 1367.57 | 25.2
303.15 K, x2 = 0.6988 | 1382.12 | 28.07
303.15 K, x2 = 0.8042 | 1401.89 | 32.58
303.15 K, x2 = 0.883 | 1414.8 | 36.02
308.15 K, x2 = 0 | 1063.15 | 4.44
308.15 K, x2 = 0.05 | 1108.94 | 5.22
308.15 K, x2 = 0.1002 | 1148.11 | 6.25
308.15 K, x2 = 0.1505 | 1181.92 | 7.26
308.15 K, x2 = 0.1985 | 1210.09 | 8.36
308.15 K, x2 = 0.3001 | 1259.51 | 10.91
308.15 K, x2 = 0.3987 | 1297.6 | 13.67
308.15 K, x2 = 0.4903 | 1326.67 | 16.42
308.15 K, x2 = 0.6309 | 1362.7 | 20.93
308.15 K, x2 = 0.6988 | 1377.23 | 23.21
308.15 K, x2 = 0.8042 | 1396.97 | 26.77
308.15 K, x2 = 0.883 | 1409.86 | 29.49
313.15 K, x2 = 0 | 1058.9 | 3.95
313.15 K, x2 = 0.05 | 1104.57 | 4.61
313.15 K, x2 = 0.1002 | 1143.65 | 5.5
313.15 K, x2 = 0.1505 | 1177.38 | 6.41
313.15 K, x2 = 0.1985 | 1205.49 | 7.35
313.15 K, x2 = 0.3001 | 1254.8 | 9.43
313.15 K, x2 = 0.3987 | 1292.82 | 11.71
313.15 K, x2 = 0.4903 | 1321.83 | 14.07
313.15 K, x2 = 0.6309 | 1357.8 | 17.79
313.15 K, x2 = 0.6988 | 1372.3 | 19.67
313.15 K, x2 = 0.8042 | 1392.01 | 22.59
313.15 K, x2 = 0.883 | 1404.86 | 24.85
318.15 K, x2 = 0 | 1054.65 | 3.53
318.15 K, x2 = 0.05 | 1100.22 | 4.07
318.15 K, x2 = 0.1002 | 1139.2 | 4.87
318.15 K, x2 = 0.1505 | 1172.86 | 5.67
318.15 K, x2 = 0.1985 | 1200.91 | 6.5
318.15 K, x2 = 0.3001 | 1250.12 | 8.31
318.15 K, x2 = 0.3987 | 1288.06 | 10.27
318.15 K, x2 = 0.4903 | 1317.02 | 12.18
318.15 K, x2 = 0.6309 | 1352.92 | 15.24
318.15 K, x2 = 0.6988 | 1367.39 | 16.82
318.15 K, x2 = 0.8042 | 1387.06 | 19.24
318.15 K, x2 = 0.883 | 1399.89 | 21.07
323.15 K, x2 = 0 | 1050.4 | 3.17
323.15 K, x2 = 0.05 | 1095.86 | 3.69
323.15 K, x2 = 0.1002 | 1134.75 | 4.36
323.15 K, x2 = 0.1505 | 1168.33 | 5.03
323.15 K, x2 = 0.1985 | 1196.32 | 5.73
323.15 K, x2 = 0.3001 | 1245.42 | 7.26
323.15 K, x2 = 0.3987 | 1283.28 | 8.9
323.15 K, x2 = 0.4903 | 1312.18 | 10.53
323.15 K, x2 = 0.6309 | 1348.01 | 13.14
323.15 K, x2 = 0.6988 | 1362.45 | 14.49
323.15 K, x2 = 0.8042 | 1382.08 | 16.64
323.15 K, x2 = 0.883 | 1394.89 | 18.26
